# Experimental data reported in a melting point compilation (Tetko et al.; mined from patent text by program, amines drawn as free bases though some values may be those of a salt).
row,SMILES,melting point [°C]
1,COc1ccc(C=Nc2ccccc2SCc2ncon2)cc1OC,146
2,O=C1CNN=C(c2ccccn2)N1,138 to 139
3,CCOC(=NC(=O)c1ccc(Br)cc1)N1Cc2ccccc2-c2ccccc2C1,116 to 117
4,CSc1ccc(-c2c(Cl)nc(Cl)nc2-c2ccccc2)cc1,88 to 90
5,CS(=O)(=O)N(Cc1ccccc1)c1ccc(C(=O)CBr)cc1,101 to 103
6,COc1ccc(Cn2c(=O)cc(C(F)(F)F)n(C)c2=O)cc1,79 to 80
7,CCCCCCN1CCN(Cc2ccc([N+](=O)[O-])cc2)C(=O)C1=O,115 to 117
8,COC(=O)CCN(CC1CC2c3cccc4[nH]cc(c34)CC2N(C)C1)C(=O)NC(C)C (stereo not drawn),112 to 115
9,Cc1ccc(N2C(=O)C(O)=C(C(=O)c3ccc(C(C)C)cc3)C2c2ccc(Cn3ccnn3)cc2)nn1 (stereo not drawn),293
10,CN(C)C=Nc1nc(Cl)c2[nH]cnc2n1,300
11,C=CCNC(=O)N1CC(OCc2ccc(C(F)(F)F)cc2)C1,120
12,O=C(NCCc1cccc2ccccc12)C1CC1,117 to 118
13,COC(=O)CC1Cc2ccc(O)cc2NC1=O (stereo not drawn),178 to 180
14,C#CC1(COC(C)=O)OC(n2ccc(=O)[nH]c2=O)C(OC(C)=O)C1OC(C)=O (stereo not drawn),160 to 162
15,N=C(NS(=O)(=O)C=Cc1ccc(Cl)c(Cl)c1)c1ccccc1,144 to 146
16,NC[C@H]1CCCN1C(c1ccccc1)(c1ccccc1)c1ccccc1,100
17,COc1ccc2cc(C(=O)c3ccc(C)c(C)c3)oc2c1,95 to 97
18,CCOC(=O)COc1ccc2cc(-c3cc4ccccc4o3)ccc2c1Cl,140 to 142
19,Cc1c(-c2nnn[nH]2)oc2c(c1=O)CSc1ccccc1-2,247 to 248
20,O=C1CC(=CN2CCOCC2)Oc2c(O)cccc21,202
21,CC(NC(=O)OC(C)(C)C)C(=O)Nc1cc(CO)cc(Nc2c3ccccc3nc3ccccc23)c1 (stereo not drawn),131 to 133
22,COC(=O)c1ccc(-c2cc3c(Nc4cccc(Cl)c4)ncnc3[nH]2)cc1,> 300
23,Cc1oc(-c2ccc(C(F)(F)F)cc2)nc1COc1ccc(S(=O)(=O)Cl)cc1,90 to 93
24,O=C(O)C(Oc1ccccc1)C(=O)NCC1CCN(c2ccncc2)CC1 (stereo not drawn),84 to 86
25,CCN(CC)CCNC(=O)c1ccc(NC(=O)c2ccc3c(c2)OCO3)cc1OC,131

row,SMILES,melting point [°C]
1,O=C(O)Cc1c(C(=O)O)c2cc(Oc3ccc(C(F)(F)F)cc3)ccc2n1-c1ccc(C2CCNCC2)cc1,256 to 258
2,CC(C)c1cccc(C(C)C)c1NC(=O)CN1CCN(CCOc2nc3ccccc3[nH]2)CC1,205 to 206
3,Cc1ncnc(N)c1C=O,158 to 160
4,Cn1c([N+](=O)[O-])cnc1-c1nnc2ccc(N=CN3CCC(O)CC3)nn12,188 to 190
5,O=C(O)Cn1cc2c(=O)n3c(nc2n1)SCC3,276
6,C#CCNC(=O)c1ccc2ccccc2c1,163 to 165
7,Cc1cc(CC(=O)NCc2cccc3c2C(=O)N(C2CCC(=O)NC2=O)C3=O)oc1C (stereo not drawn),221 to 223
8,COc1cc2ncc(C#N)c(C)c2cc1OCc1ccccc1,165 to 172
9,COc1cccc(/C=C/C(=O)N2CC(CCl)c3c2cc(N)c2ccccc32)c1 (stereo not drawn),> 200
10,Cc1c(CC(=O)O)c(=O)oc2cc(O)c(O)c([N+](=O)[O-])c12,> 350
11,CCOC(=O)C1=C(C)NC(CSc2ncccn2)=C(C(=O)OCC)C1c1cccc([N+](=O)[O-])c1 (stereo not drawn),115 to 117
12,N#Cc1ccc(Oc2ccc(CC(=O)O)cc2)cc1,126 to 128
13,COC(=O)C(=NO)c1nc2cc(Cl)ccc2oc1=O,176 to 177
14,CCOC(=O)CN(C(=O)C(F)(F)F)c1ccc(Cl)cc1C#N,71 to 73
15,CC(C)OC(=O)C(O)C(CC1CCCCC1)NC(=O)C(Cc1c[nH]cn1)NC(=O)C(CCOc1ccc(F)cc1)Cc1cccc2ccccc12 (mixture of isomers),87 to 91
16,CC(=O)NCC1CN(c2ccc(N3CCC(n4ccnn4)C(F)C3)c(F)c2)C(=O)O1 (stereo not drawn),158 to 160
17,CCCCCCCCCCCCCCCC(=O)OCc1cc2c(s1)-c1ccccc1OC2c1ccccc1 (stereo not drawn),64 to 65
18,CCCCc1[nH]c2ccc(OC)cc2c1C(=O)c1ccc(OC)cc1,170
19,O=C(c1cccs1)c1cnn2c(-c3cccc(NCc4cccc(Cl)c4)c3)ccnc12,133 to 135
20,CCOC(=O)C(=O)Nc1cccc(F)c1O,168
21,Cc1nc(N)c([N+](=O)[O-])cc1Cl,214 to 215
22,CNC(=O)c1cccc(Nc2ncnc3[nH]cc(C(=O)c4ccccc4C)c23)c1,> 300
23,COc1ccc(Br)c(COc2ccc3ccc(OC)cc3c2)c1,156 to 157
24,Cc1ccn(NS(=O)n2ccnc2)c(=N)c1 (stereo not drawn),176 to 177
25,CCOC(=O)c1c(-c2ccc(CBr)cc2)nc2ccccn12,131

row,SMILES,melting point [°C]
1,CC1(N2C(=O)c3cccc(NCc4ccco4)c3C2=O)CCC(=O)NC1=O (stereo not drawn),158 to 160
2,CCOc1nn(Cc2ccc(OC)c(OCc3nc(-c4ccccc4)oc3C)c2)cc1CCC(=O)O,136 to 137
3,OC(Cn1cncn1)(Cn1cnc(C=Cc2ccc(C(F)(F)F)cc2)n1)c1ccc(Cl)cn1 (stereo not drawn),159 to 161
4,Cc1nc(NC(=O)NC(C)(C)C)ccc1-c1ccncc1,297 to 300
5,O=c1cc(-c2ccncc2)nc2n(CCCc3c[nH]c4ccccc34)ccn12,201 to 203
6,CC(=O)C1=C(C)NC2=C(C(=O)CCC2)C1c1cccc([N+](=O)[O-])c1 (stereo not drawn),> 250
7,CCCCCCCCCCCc1ccc(CC(=O)O)cc1,83 to 84
8,COc1cc(C#N)cc2c1OC(C)(C)C2,73 to 74
9,Cc1oc2cccc(OCC#N)c2c1C,50 to 52
10,NC(=O)N(O)Cc1cccc2ccsc12,138 to 140
11,N#Cc1ccc(C(=C2CCCCCC2)c2ccc(O)cc2)cc1,110 to 111
12,Cc1ccc(S(=O)(=O)Oc2ccc(S(=O)(=O)C3=C(C(C)C)OCC3)cc2)cc1,103
13,CC(O)c1cc2c3ccccc3n(C)c(=O)n2n1 (stereo not drawn),169 to 172
14,CCCC1=C(C(=O)OCC)C(c2cccc(C)c2OC)c2c[nH]nc2N1 (stereo not drawn),220 to 222
15,O=C(O)c1cc(S(=O)(=O)N2CC=CCC2)ccc1Cl,180 to 182
16,O=C(CP(=O)(O)CCCCc1ccccc1)OCc1ccccc1,64 to 67
17,COc1ccc(C(=O)O)cc1NC(=O)[C@H](CCCNC(=N)N[N+](=O)[O-])NC(=O)OCc1ccccc1,208 to 209
18,O=C(NCc1ccccn1)Nc1cc(NC(=O)c2ccccn2)ccn1,206 to 207
19,COc1ccc(C2=NC(NC(=O)Nc3ccc(C(=O)c4ccccc4)cc3)c3nnc(C)n3-c3ccccc32)cc1 (stereo not drawn),225
20,COc1cc(C)nc(NC(=O)NS(=O)(=O)c2cccc(NC(=O)NC(C)(C)C)c2)n1,137 to 145
21,O=C(Nc1cccc(F)c1F)c1ccc(-n2nc(C(F)(F)F)cc2C2CC2)nc1,155 to 160
22,C#CCNC(=O)C(F)(F)F,31 to 33
23,Oc1ccc(Oc2ccc(Cl)cc2)cc1,85 to 86
24,COc1ccc(-c2nc(C(=O)C(F)(F)F)[nH]c2-c2ccc(OC)cc2)cc1,191 to 192
25,Fc1cccc(F)c1-c1nc(/C=C/c2ccc(C3CCCCC3)cc2)no1,86 to 87

row,SMILES,melting point [°C]
1,Cc1ccc(S(=O)(=O)N(C)c2ccccc(N)c2=O)cc1,221 to 222
2,CCOC1(OCC)CCC(C#N)(CC#N)CC1,74 to 75
3,CCOc1ccccc1N(C[C@H]1CC[C@H](CN(C(=O)Nc2ccc(N(C)C)cc2)c2ccccc2OCC)CC1)C(=O)Nc1ccc(N(C)C)cc1,153 to 155
4,Cc1c(F)cccc1NS(=O)(=O)c1cc(S(=O)(=O)Nc2cccc(F)c2C)c2cc(O)ccc2c1,128 to 130
5,COCCS(=O)(=O)c1ccc(CCN2CC=C(c3c[nH]c(-c4ccc(F)c(Cl)c4)c3-c3ccncc3)CC2)cc1,208 to 210
6,COc1ccc2c(c1)C(=O)C(Cc1nccs1)CO2 (stereo not drawn),71 to 73
7,Clc1nc(NCCCCC=C(c2ccccc2)c2ccccc2)c2nc[nH]c2n1,206 to 207
8,CC(Cn1cc[nH]c1=NC#N)c1ccc(OC(F)F)c(OC2CCOC2)c1 (stereo not drawn),67.8
9,CNc1cc(Br)nc(S(=O)(=O)c2ccc([N+](=O)[O-])cc2)c1,191 to 192
10,C=CC(=O)OCC=C(C)CCC=C(C)CCC=C(C)CCC=C(C)CCC=C(C)CCC=C(C)CCC=C(C)CCC=C(C)CCC=C(C)CCC=C(C)C,32 to 32.8
11,CCCCCCCCCCCCCC(=O)Nc1ccc(C2=NNC(=O)NC2C)cc1 (stereo not drawn),206 to 209
12,O=c1oc(-c2ccc(F)cc2)cc2ccccc12,134 to 135
13,CC(=O)C1CCC2C3CCC4CC=CCC4(C)C3C(OC(=O)CI)CC12C (stereo not drawn),127 to 129
14,CC1(C)Cc2ccccc2C1c1cnccc1C(=O)O (stereo not drawn),254 to 257
15,COc1ccc2c(c1)c(Cc1nc(-c3ccc(F)cc3F)cs1)c(C)n2C(=O)c1ccc(Cl)cc1,134 to 136
16,CCOc1cccc(CNC(=O)[C@H]2N(C(=O)[C@@H](O)[C@H](Cc3ccccc3)NC(=O)c3cccc(O)c3C)CSC2(C)C)c1,105 to 107
17,O=C1[C@H]2CCC[C@H]2N(C(=O)Cn2ccnc2)c2ccccc2N1Cc1ccccc1 (relative stereo),183 to 184
18,COC(=O)c1ccccc1CS(=O)(=O)NC(=O)Cc1nc(OC)cc(OC)n1,98 to 101
19,O=C1CCC(=O)N1CC(O)COc1ccccc1 (stereo not drawn),130
20,O=C(O)c1cn(C2CC2)c2c(F)c(N3Cc4cccc(O)c4C3)c(F)cc2c1=O,> 300
21,COCc1nc2c(N)nc3ccccc3c2n1CC(C)(C)OCCS(C)(=O)=O,186 to 189
22,COc1ccc([C@@H]2Sc3cc(Oc4ccc5c(c4)OCO5)ccc3NC(=O)[C@@H]2O)cc1,188
23,c1ccc(-c2nc3ncccc3o2)cc1,125 to 127
